# Assays:
# [1] = system: C57BI/6 mice; test: Serum cytokines after intravenous injection, ELISA; format: in vivo; settings: 1 μg intravenous
# Description: In vivo, following intravenous injection of 1 μg of positive control compound, αGalCer, or PBS-32, IFN-γ production in the serum of C57BI/6 mice was measured by ELISA and was very similar for both compounds (2500 pg/ml and 1500 pg/ml at 24 hours, respectively). IL-4 was undetectable following PBS-32 injection. […] At eight hours post-injection, PBS-32 induced 600 pg/ml IFN-γ.
# [2] = system: splenic DCs; test: Induction of DC maturation in vivo, FACS of splenic cells; set-up: species or system mice; settings: for DC phenotype (CD40, CD80, CD86, MHC class II expression): CD11c+/CD8+ and CD11c+/CD8− cells
# Description: Mice were injected with α-GalCer, PBS-31 and PBS-32 and DC differentiation was examined in splenic DCs by analyzing cell surface marker expression.
# Three mice in each group were injected intravenously with 1 μg lipid or vehicle alone. At 24 hours post-injection, CD1d expression was examined on splenic B cells (B220+), macrophages (CD11b+) and DCs (CD11c+) by FACS analysis using a FACScalibur machine and FlowJo analysis software.
# The maturation of DCs was analyzed by measuring expression of CD40, CD80, CD86, and MHC class II on CD11c^+/CD8^+ and CD11c^+/CD8^− cells (FIG. 8). […] PBS-32 and αGalCer reached maximal induction between 0.1 and 1 μg (data not shown).
# Induction of DC maturation was unaffected in MyD88^−/− and MyD88^−/−TRIF^−/− knock out animals in which the Toll-like receptor pathway is partially, or totally impaired, respectively (data not shown). The CD1d-dependence was confirmed by injecting CD1d^−/− mice with the lipids.
# [3] = system: lymphocytic choriomeningitis virus (LCMV); format: in vivo, C57BI/6 mice; settings: 1 μg intravenous before 10^6 PFU LCMVArm, day 8 post-infection, intracellular IFN-γ
# [4] = target: Vα14/2Cβ TCR; settings: previously reported, Cantu et al. 2003; read-out: affinity of the TCR for CD1d-lipid complex; cited from earlier work
# [5] = target: T1, CD1d (Mus musculus, UniProt P11609); test: Loading of CD1d molecules, native isoelectric focusing (IEF) gel assay; format: binding; settings: 2 μM CD1d, 20 μM lipid, 1 hour at 37° C., no saposin B
# T1 sequence (P11609 19-297 limits assumed): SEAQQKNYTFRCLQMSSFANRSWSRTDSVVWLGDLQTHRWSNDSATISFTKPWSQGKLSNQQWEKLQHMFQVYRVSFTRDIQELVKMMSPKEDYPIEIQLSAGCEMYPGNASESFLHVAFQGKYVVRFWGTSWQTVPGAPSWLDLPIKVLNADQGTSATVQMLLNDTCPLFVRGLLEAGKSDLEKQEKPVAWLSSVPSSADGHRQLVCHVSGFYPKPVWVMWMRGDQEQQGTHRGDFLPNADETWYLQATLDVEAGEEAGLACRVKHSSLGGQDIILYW
# T1 sequence (P01887 21-119 partner): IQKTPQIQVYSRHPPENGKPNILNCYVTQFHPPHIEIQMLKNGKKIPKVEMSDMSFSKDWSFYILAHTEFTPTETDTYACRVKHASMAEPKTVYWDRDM
# Description: Whether PBS-31 and PBS-32 could be efficiently loaded onto CD1d molecules was tested using a native isoelectric focusing (IEF) gel assay in the presence and absence of saposin B. For comparison, PBS-41 and PBS-46 (sulfo-β-galactosylceramides), PBS-36 and PBS-58 (sulfo-α-glucosylceramides) and PBS-35 and PBS-40 (β-glucosylceramides) were also evaluated in this assay.
# Each 5 μl reaction contained 2 μM CD1d, 20 μM lipid and 10 μM saposin B. Reactions were incubated for 1 hour at 37° C. prior to gel loading.
# Loaded species are indicated by a star in FIG. 3. The lanes of FIG. 3 were loaded as follows: 1, no lipid; 2, αGalCer; 3, PBS-31; 4, PBS-32; 5, no lipid; 6, iGB3; 7, PBS-40; 8, PBS-41; 9, PBS-35; 10, PBS-46; 11, PBS-58; 12, PBS-25 (positive control).
# [6] = system: human NKT cell line; test: Activation of human NKT cell line, IL-4 and IFN-γ ELISA; format: cell-based; settings: 24 hours incubation with PBLs or matured DCs
# Description: The agonistic activity of PBS-31 and PBS-32 was examined for human NKT cells. A human NKT cell line was stimulated with irradiated peripheral blood lymphocytes (PBLs) or in vitro matured DCs in the presence of PBS-31, PBS-32 and control lipid, iGB3. (Mattner et al., Nature 434: 525-529 (2005) incorporated herein by reference in its entirety.) After 24 hours incubation, supernatants were harvested and assayed for the presence of IL-4 and IFN-γ by ELISA.
# [7] = system: ovalbumin-specific CD8+ T cell and IgG responses; test: Adjuvant capability with ovalbumin antigen; format: in vivo, mice; settings: for H-2Kb/ova257-264 tetramer positive cells in the CD8+ T cell pool: ovalbumin plus 1 μg lipid intravenous, peripheral blood, day 7 post-injection; for IgG anti-ovalbumin response: ovalbumin plus lipid, ELISA, compared to control group
# Description: The potential adjuvanticity of PBS-31 and PBS-32 combined with a nominal protein antigen, ovalbumin, was conducted following a protocol similar to that of Fujii et al., J. Exp. Med. 198: 267-279 (2003) and Hermans et al., J. Immunol. 171: 5140-5147 (2003), which are incorporated herein by reference in their entireties. Ovalbumin was injected intravenously either alone or in combination with 1 μg of PBS-31, PBS-32 or PBS-57. […] In the absence of working tetramers to follow MHC class II responses, only CD8+ responses and B cell responses were evaluated.
# CD8+ T cell responses were evaluated by enumerating the H-2K^b/ova257-264 tetramer positive cells in peripheral blood at 7 days post-injection and are expressed as the percentage H-2K^b/ova257-264 positive cells in the CD8+ T cell pool. At day 7 post-injection, antigen-specific H-2K^b/ova257-264 tetramer positive cells were increased to about 3% in the PBS-32 injected group whereas they expanded to almost 6% in the PBS-57 treated group (FIG. 9A). […] These strong IgG responses may indirectly reflect a significant boost of the ovalbumin-specific CD4+T helper compartment as well.
# When CD1d^−/− mice were injected following the same protocol, no increase in either anti-ovalbumin IgG or in the anti-ovalbumin CD8+ T cells were noted (data not shown).
# [8] = system: CD1d-restricted Vα14 NKT hybridoma cell, DN32.D3; test: Stimulation of NKT hybridoma DN32.D3 by lipid-pulsed APCs, IL-2 release; format: cell-based, mice; settings: for presentation by DCs isolated from CD1-TD mice: DCs with disrupted cytoplasmic tail of CD1d, data not shown; for presentation by splenocytes to DN32.D3 (IL-2 release): irradiated splenocytes, 24 hours
# Description: Compounds PBS-31, PBS-32, and control lipids were evaluated for their ability to stimulate a canonical CD1d-restricted Vα14 NKT hybridoma cell, DN32.D3 in an assay described by Lantz, et al., J. Exp. Med. 180: 1097-1106 (1994). Irradiated splenocytes were pulsed with decreasing concentrations of the lipids and control compounds, and incubated with DN32.D3 cells for 24 hours. Supernatants were harvested and IL-2 release was measured using a [^3H]-thymidine incorporation assay with an IL-2 dependent cell line as described by Cantu, et al., J. Immunol. 170:4673-4682 (2003).
# Similar results were obtained when mature DCs were used as the APCs (data not shown). […] Therefore, presentation of PBS-31 and PBS-32 and concomitant stimulation of NKT cells is dependent on lysosomal targeting of CD1d.
# [9] = system: DN32.D3 cells; test: DC-free assay: plate-coated murine CD1d, DN32.D3 cells, IL-2 production; format: cell-based; settings: for requirement of processing by DCs for stimulation of NKT cells: plate-coated murine CD1d, with saposin B, 24 hours, data not shown
# Description: To determine whether presentation of PBS-31 and PBS-32 to NKT cells was dependent on processing by DCs, a DC-free assay was used in which murine CD1d was coated on 96 well plates. PBS-31, PBS-32 and control compounds were added at various concentrations in the presence and absence of saposin B. DN32.D3 cells were added and supernatants were harvested after 24 hours and production of IL-2 was measured.
# [10] = system: NKT cells; test: Cytokine production by stimulated NKT cells (splenocytes), ELISA; format: cell-based; settings: 24 hours incubation with splenocytes
# Description: NKT cells were stimulated with PBS-32 or control compounds presented by plate-bound CD1d, splenocytes or purified mature DCs. Production of IFN-γ, IL-4, IL-10 and GM-CSF was measured by ELISA. […] The control lipids (glucosyl and galactosyl) were negative in the same assays. Cytokine induction was CD1d-dependent because induction was blocked by anti-CD1d antibodies and no cytokine induction was observed when DCs from CD1d^−/− mice were used (data not shown).
# [11] = system: murine Vα14 NKT cell line; test: Lipid-loaded CD1d tetramer staining of NKT cell line, FACS; format: binding; settings: lipid-loaded CD1d tetramers; data not shown
# Description: PBS-32-loaded CD1d tetramers, as well as control αGalCer tetramers, were prepared as described in Benlagha et al., J. Exp. Med. 191: 1895-1903 (2000) incorporated herein by reference in its entirety. The resulting tetramers were used to stain a murine Vα14 NKT cell line. After washing, the cells were analyzed on a FACSCalibur (BD Biosciences) using FlowJo software.
compound,measurement,setting,value
"CCCCCCCCCCCCCCCCCCCCCCCCCC(=O)N[C@@H](CO[C@H]1O[C@H](CO)[C@H](O)[C@H](O)[C@H]1O)[C@H](O)[C@H](O)CCCCCCCCCCCCCC [αGalCer, α-galactosylceramide, reference compound]",IFN-γ production in the serum,[1]; at 24 hours,2500 pg/mL
same,"DC phenotype (CD40, CD80, CD86, MHC class II expression)","[2]; 1 μg intravenous, 24 hours",mature phenotype
same,"anti-LCMV CD4+ T cell response (GP61, NP309)",[3],unchanged
same,"anti-LCMV CD8+ T cell response (GP33, NP396, GP276)",[3],significantly increase
same,Kd,[4],30 nM
CCCCCCCCCCCCCC[C@@H](O)[C@@H](O)[C@H](CO[C@H]1O[C@H](CO)[C@H](O)[C@H](O)[C@H]1O)NC(=O)CCCCCCC [PBS-25],loading of CD1d in the absence of saposin B,[5],marginally loaded in the absence of saposin B
"isoglobotrihexosylceramide [iGB3, reference compound]",IL-4 secretion,[6],almost equivalent amounts
CCCCCCCCCCCCCCCCCCCCCCCCCC(=O)NC(COC1OC(CO)C(O)C(OS(=O)(=O)O)C1O)C(O)C(O)CCCCCCCCCCCCCC (centres unmarked) [PBS-36],loading of CD1d in the absence of saposin B,[5],loaded onto CD1d in the absence of saposin B
"CCCCCCCC/C=C\CCCCCCCCCCCCCC(=O)N[C@@H](CO[C@H]1O[C@H](CNC(C)=O)[C@H](O)[C@H](O)[C@H]1O)[C@H](O)[C@H](O)CCCCCCCCCCCCCC [PBS-57, reference compound]",H-2Kb/ova257-264 tetramer positive cells in the CD8+ T cell pool,[7],~6%
same,IgG anti-ovalbumin response,[7],dramatically boosted
"CCCCCCCCCCCCC/C=C/[C@@H](O)[C@H](CO[C@@H]1O[C@H](CO)[C@@H](O)[C@H](OS(=O)(=O)O)[C@H]1O)NC(=O)CCCCCCCCCCCCCCCCCCCCCCCCC [PBS-32, sulfoglucosylceramide]",presentation by DCs isolated from CD1-TD mice,[8],inefficient at presenting
same,presentation by splenocytes to DN32.D3 (IL-2 release),[8],efficiently presented
same,relative potency in IL-2 production,[9],consistently more potent than phytoceramide PBS-31
same,requirement of processing by DCs for stimulation of NKT cells,[9],does not require processing by DCs
same,GM-CSF secretion,[10],induced secretion
same,IFN-γ secretion,[10],induced secretion
same,IL-4 secretion,[10],induced secretion
same,IL-10 secretion,[10],not IL-10
same,IL-4 in serum,[1],undetectable
same,timing of IFN-γ production,[1],earlier IFN-γ production than α-GalCer
same,IFN-γ production in the serum,[1]; at 24 hours,1500 pg/mL
same,IFN-γ production in the serum,[1]; eight hours post-injection,600 pg/mL
same,tetramer staining intensity,[11],less intense than for CD1d-αGalCer tetramers but homogenous
same,IFN-γ secretion,[6],able to induce
same,IL-4 secretion,[6],almost equivalent amounts
same,"DC phenotype (CD40, CD80, CD86, MHC class II expression)","[2]; 1 μg intravenous, 24 hours",mature phenotype
same,adjuvant activity with purified protein antigen,[7]; in combination with ovalbumin,had adjuvant activity
same,H-2Kb/ova257-264 tetramer positive cells in the CD8+ T cell pool,[7],about 3%
same,IgG anti-ovalbumin response,[7],dramatically boosted
same,"anti-LCMV CD4+ T cell response (GP61, NP309)",[3],significant increase
same,"anti-LCMV CD8+ T cell response (GP33, NP396, GP276)",[3],did equally well
CCCCCCCCCCCCC/C=C/[C@@H](O)[C@H](CO[C@H]1O[C@H](CO)[C@@H](O)[C@H](OS(=O)(=O)O)[C@H]1O)NC(=O)CCCCCCCCCCCCCCCCCCCCCCCCC [PBS-58],loading of CD1d in the absence of saposin B,[5],marginally loaded in the absence of saposin B
CCCCCCCCCCCCCCCCCCCCCCCCCC(=O)NC(COC1OC(CO)C(O)C(OS(=O)(=O)O)C1O)C(O)C(O)CCCCCCCCCCCCCC (centres unmarked) [PBS-31],presentation by DCs isolated from CD1-TD mice,[8],inefficient at presenting
same,presentation by splenocytes to DN32.D3 (IL-2 release),[8],efficiently presented
same,requirement of processing by DCs for stimulation of NKT cells,[9],does not require processing by DCs
same,GM-CSF secretion,[10],induced only GM-CSF
same,IFN-γ secretion,[10],induced only GM-CSF
same,IL-4 secretion,[10],induced only GM-CSF
same,IL-10 secretion,[10],induced only GM-CSF
same,IFN-γ secretion,[6],significantly less
same,IL-4 secretion,[6],almost equivalent amounts
same,DC maturation effect relative to the other lipids,"[2]; 1 μg intravenous, 24 hours",less pronounced effect
same,"DC phenotype (CD40, CD80, CD86, MHC class II expression)","[2]; 1 μg intravenous, 24 hours",mature phenotype
same,lesser potency on DC maturation at increased doses,"[2]; doses up to 50 μg per mouse, data not shown",could not be overcome

# Source: patent US8932594B2, “Adjuvants and methods of use” (The Scripps Research Institute, priority 2006, dated 2015)
